Series [1] relates to MM-AN cells. Kind of series: Tumorigenicity of pretreated MM-AN cells in SCID mice. Format: in vivo. The note with it: cells pretreated 40 μM 48 hours; day 18 (diluent 322±45). As to the method:
To study the effect of T-oligo on the tumorigenicity of MM-AN cells, cells were grown in DMEM with 5% fetal bovine serum (FBS) and treated with 40 μM of T-oligo, complement, or diluent alone for 48 hours. The cells were then harvested with trypsin/EDTA and the percent viability determined by trypan blue exclusion. […] The tumorigenicity of these melanoma cells was determined by injecting 1×10^6 viable cells in balanced salt solution subcutaneously over the right scapular region of SCID mice (3 groups of 5 mice) to produce tumors. The animals were sacrificed by CO2 inhalation 18 days after treatment and the tumor size evaluated with calipers. Tumors were processed for hematoxylin and eosin staining and the melanocytic origin of the tumors was confirmed by immunohistochemical staining of the lesion using HMB-45 monoclonal antibody, which recognizes gp-100, a conventional marker for human melanoma.

Series [2] relates to MM-AN cells. Briefly: Metastatic potential of pretreated MM-AN cells in SCID mice. Type of series: in vivo. The note with it: for animals that developed multiple metastases: 5 mice per group, 40 days; for METASTASIS FREE: animals of 5; for Total Tumor Load (5 animals): mouse, in vivo; for Average tumors per animal: visible tumors, 40 days (diluent 15.8). As to the method:
To study the effect of T-oligo on the metastatic potential of melanoma cells, cultures of MM-AN cells were treated for 48 hours with T-oligo, complement or diluent alone and harvested as described above. 1×10^6 cells in balanced salt solution were injected into the lateral tail vein of 5-week old SCID mice (3 groups of 5 mice). After 40 days, mice were sacrificed by CO2 inhalation, an autopsy performed and organs examined macroscopically for visible metastatic lesions.

The test system of another series is p21/Waf 1/Cip 1 gene. Briefly: p21 mRNA Northern blot in SCC12F cells. Type of series: cell-based, human. The note with it: for p21 mRNA level relative to diluent control: 48 hours, FIG. 13; for increase of p21/Waf 1/Cip 1 mRNA level: within 48 hours. The method, then:
The induction of melanogenesis in Cloudman S91 mouse melanoma cells by a five-nucleotide oligomer CATAC (SEQ ID NO: 6) and a nine-nucleotide oligomer, GAGTATGAG (SEQ ID NO: 1) was examined. Duplicates of Cloudman S91 murine melanoma cells were incubated with either 100 μM oligo or an equal volume of diluent (H2O) for 5 days. The cells were then collected, counted, and an equal number of cells were pelleted for melanin analysis. […] Variations of this oligonucleotide were evaluated: a scrambled 9-mer (TAGGAGGAT; SEQ ID NO: 2) and two truncated versions, a 7-mer (AGTATGA; SEQ ID NO: 3) and second 5-mer (GTATG; SEQ ID NO: 4). […] The truncated versions (SEQ ID NOs: 3 and 4) were also active, inducing 640% and 670% increases, respectively.
pTpT was previously found to inhibit cell cycle progression, at least in part through activation of p53 and subsequent upregulation of the cyclin dependent kinase inhibitor p21. Cultures of the human keratinocyte line SCC12F were treated with pTpT, SEQ ID NO: 1, SEQ ID NO: 6 or diluent alone as a negative control, collected and counted 48 hours later and processed for northern blot analysis of p21 mRNA expression. […] Thus, the sequences of the present invention activate p53 and inhibit cell proliferation similar to the effect of pTpT.

A further series concerns mouse skin. Briefly: Photodamage of UVB-irradiated XPA+/+ and XPA−/− mouse skin. Type of series: in vivo. The note with it: XPA−/− mice; 72 hours after last UV (diluent 15±5). The source says: Patients with a mutated xeroderma pigrnentosum group A (XPA) gene have a greater than 1000 fold increased risk of UV-induced skin cancer. XPA^−/− mice mimic the human syndrome [Kraemer, K. et al., pp. 256–261 In: Molecular Biology of Aging (Bohr, V. A., et al., eds.) Munksgaard, Copenhagen, 1999]. We have previously shown that oligonucleotides, particularly thymidine dinucleotide (pTT) and pGAGTATGAG (SEQ ID NO:1) that are partial homologs of the telomere overhang tandem repeat TTAGGG (SEQ ID NO:11), increase levels of proteins involved in nucleotide excision repair and enhance the DNA repair rate. […] The mice were UV irradiated on day 5 with a previously determined erythemogenic UVB dose. […] Seventy-two hours after the last dose of […], the mouse skin was processed histologically to assess general morphology, proliferation (Ki-67) [Ohike N. and T Morohoshi, Pathol Int (2001), 51:770–777; Billgren, A. M. et al., Breast Cancer Res Treat (2002), 71:161–170], cyclobutane pyrimidine dimers (CPDs) determined by specific antibody binding, and on-going DNA repair [proliferating cell nuclear antigen (PCNA); see Savio, M. et al., Carcinogenesis (1998) 19:591–596; Rudolph, P. et al., Hum Pathol (1998) 29:1480–1487].

Another series deals with melanin in ear skin. Kind of series: In vivo melanogenic activity on ears (Fontana Masson). The arrangement: species or system mice. The note with it: 100 μM once daily in propylene glycol; 15 days. As to the method: In another experiment, mice were treated once daily with either 100 μM pTpT or SEQ ID NO: 1 containing a 5′ phosphate in propylene glycol on one ear, or vehicle alone on the other ear. After 15 days, when the ears were sectioned and stained with Fontana Masson to detect melanin compared to vehicle controls, there was a 70% increase in pigmentation in pTpT-treated ears and a 250% increase with SEQ ID NO: 1. Thus, both compounds comprising as few as 2 and as many as 9 nucleotides are effective at producing the in vitro UV-mimetic effects in vivo.

Oligonucleotides are written 5' to 3', each unit as a sugar letter and its base; * is a phosphorothioate linkage, no mark a phosphodiester; rarer units and linkages stand in square brackets, end groups in braces. Plain capitals give the bases only. d = 2'-deoxy (DNA); {P} = phosphate

“pCTAACCCTAAC (DNA, 5' {P}, backbone not given here) [SEQ ID NO: 9, reference compound]”: the Mean tumor volume with MM-AN cells [1] is 238±50 mm^3. In addition, in the series on MM-AN cells [2], the “animals that developed multiple metastases” value is “All five animals”. Besides, the Animals with tumors in the series with MM-AN cells [2] (Site: Adrenal) is given as 2/5; in the series with MM-AN cells [2] (Site: Bone) it was 1/5; in the series on MM-AN cells [2] (Site: Brain), 3/5; with MM-AN cells [2] (Site: Brown fat), 3/5; in the series on MM-AN cells [2] (Site: Kidney) it was 4/5; in the series with MM-AN cells [2] (Site: Liver), 2/5. Besides, the Animals with tumors is 3/5 in the series with MM-AN cells [2] (Site: Lung), 1/5 in the series with MM-AN cells [2] (Site: Miscellaneous) and 4/5 with MM-AN cells [2] (Site: Pancreas). In addition, the Total tumors is 3 in the series with MM-AN cells [2] (Site: Adrenal); 3 in the series with MM-AN cells [2] (Site: Bone); 3 with MM-AN cells [2] (Site: Brain); 8 with MM-AN cells [2] (Site: Brown fat); 7 with MM-AN cells [2] (Site: Kidney); 4 in the series on MM-AN cells [2] (Site: Liver). Further, the Total tumors worked out at 6 in the series on MM-AN cells [2] (Site: Lung), 7 in the series with MM-AN cells [2] (Site: Miscellaneous) and 7 with MM-AN cells [2] (Site: Pancreas). In the series on MM-AN cells [2], the “METASTASIS FREE” value is 0/5. Moreover, in the series on MM-AN cells [2], the “Total Tumor Load (5 animals)” value is 48. Further, the “Average tumors per animal” value with MM-AN cells [2] amounted to 9.6.
As for “pGAGTATGAG (DNA, 5' {P}, backbone not given here) [SEQ ID NO: 1]”, in the series with p21/Waf 1/Cip 1 gene, the “p21 mRNA level relative to diluent control” value is given as roughly 3 fold and the “increase of p21/Waf 1/Cip 1 mRNA level” value was 200–300%. For the same substance, the “CPD (+) cells per 400× microscopic field” value in the series with mouse skin is “none”. Besides, the “increase in pigmentation compared to vehicle controls” value in the series on melanin in ear skin was 250%.
As for “pGTTAGGGTTAG (DNA {P}-dGdTdTdAdGdGdGdTdTdAdG) [SEQ ID NO: 5]”, in the series with MM-AN cells [1], the Mean tumor volume came to 56±13 mm^3. Moreover, the “animals that developed multiple metastases” value with MM-AN cells [2] is “one of five animals”. In addition, the Animals with tumors is 1/5 with MM-AN cells [2] (Site: Adrenal); 0/5 in the series with MM-AN cells [2] (Site: Bone); 1/5 in the series with MM-AN cells [2] (Site: Brain); 0/5 in the series on MM-AN cells [2] (Site: Brown fat); 0/5 with MM-AN cells [2] (Site: Kidney); 0/5 in the series on MM-AN cells [2] (Site: Liver). The Animals with tumors in the series with MM-AN cells [2] (Site: Lung), with MM-AN cells [2] (Site: Miscellaneous) and in the series on MM-AN cells [2] (Site: Pancreas) was 0/5 in each case. Also, the Total tumors with MM-AN cells [2] (Site: Adrenal) worked out at 2; with MM-AN cells [2] (Site: Bone), 0; with MM-AN cells [2] (Site: Brain) it was 2; in the series on MM-AN cells [2] (Site: Brown fat), 0; with MM-AN cells [2] (Site: Kidney), 0; in the series on MM-AN cells [2] (Site: Liver), 0. Moreover, the Total tumors in the series with MM-AN cells [2] (Site: Lung), in the series with MM-AN cells [2] (Site: Miscellaneous) and in the series with MM-AN cells [2] (Site: Pancreas) was 0 each time. For the same substance, the “METASTASIS FREE” value in the series with MM-AN cells [2] is reported as 4/5. Besides, the entries for the “reduction of average volume of macroscopic metastatic tumors” value in the series with MM-AN cells [2] (compared to complement treated animals) and in the series with MM-AN cells [2] (compared to diluent treated animals) were roughly 80% and “about 85%”, respectively. The “Total Tumor Load (5 animals)” value in the series with MM-AN cells [2] was determined as 4. For the same substance, in the series with MM-AN cells [2], the “Average tumors per animal” value was determined as 0.8.
As for thymidine dinucleotide [pTpT], in the series on p21/Waf 1/Cip 1 gene, the “p21 mRNA level relative to diluent control” value is “twice that of control cells” and the “increase of p21/Waf 1/Cip 1 mRNA level” value was 100–150%. For the same substance, in the series on mouse skin, the “CPD (+) cells per 400× microscopic field” value was “none”. Further, in the series with melanin in ear skin, the “increase in pigmentation compared to vehicle controls” value is on record as 70%.

The record behind these values is patent US7033829B2, “Method to inhibit cell growth using oligonucleotides” (Trustees of Boston University, priority 2000, dated 2006).
